This is an account of results in US20180312473A1, “PHENAZINE DERIVATIVES AS ANTIMICROBIAL AGENTS” (priority 2015, published 2018).

In general, MIC refers to the lowest concentration found to suppress growth. The term IC50 denotes the concentration needed to halve the response being measured. A high value points to weaker potency in that assay.

Data set [1] has as its system Staphylococcus aureus and S. epidermidis. Conditions: cited from earlier work.
Data set [2] deals with MRSA-2 (methicillin-resistant Staphylococcus aureus clinical isolate). Nature of the data set: MIC assay (broth microdilution, CLSI). The class given is cell-based. Conditions: Staphylococcus aureus, MRSA, read-out: MIC, MRSA-2. Background: Dilution methods test growth across graded concentrations, often in twofold steps.
Data set [3] deals with MRSA-1 (methicillin-resistant Staphylococcus aureus clinical isolate). Nature of the data set: MIC assay (broth microdilution, CLSI). In kind it is cell-based. Conditions: Staphylococcus aureus, MRSA, Table 11; read-out: MIC, MRSA-1.
The subject of data set [4] is Staphylococcus epidermidis (ATCC 12228). In words: MIC assay (broth microdilution, CLSI). The class given is cell-based. Conditions: Staphylococcus epidermidis.
The subject of data set [5] is Staphylococcus epidermidis (ATCC 35984), MRSE. Nature of the data set: MIC assay (broth microdilution, CLSI). In kind it is cell-based. The conditions noted are these: Staphylococcus epidermidis.
The test system of data set [6] is Enterococcus faecium (ATCC 700221), VRE. Nature of the data set: MIC assay (broth microdilution, CLSI). In kind it is cell-based.
Data set [7] concerns M. tuberculosis H37Ra (ATCC 25177). In words: Mycobacterium tuberculosis MIC assay. In kind it is cell-based. Conditions: Mycobacterium tuberculosis. The gist of the method: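 Culture diluted to OD600 0.01 and exposed to compounds in 0.5% final DMSO, each compound tested in three rows. Growth read as OD600 absorbance. Data from three independent experiments.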
A short description of another data set: in vitro. The class given is cell-based. The conditions noted are these: human.
In the next data set the test system is human red blood cells. In words: Hemolysis assay with red blood cells. The conditions noted are these: 200 μM. The gist of the method:
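Washed human red blood cells exposed to compounds added from DMSO stocks, 1 h at 37° C.; supernatant OD read at 405 nm after centrifugation. % hemolysis calculated relative to DMSO (0%) and Triton X (100%) controls, from three independent experiments.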

Data set [8] has as its system VRE (E. faecium ATCC 700221) planktonic cells and biofilms. In words: Calgary Biofilm Device (CBD) assay, MBC/MBEC. In kind it is cell-based, Enterococcus faecium. Conditions: for MBC: Enterococcus, read-out: VRE 700221 MBC.
A further data set deals with A. baumannii 19606. In words: MIC assay (broth microdilution, CLSI). The conditions noted are these: Acinetobacter baumannii, 19606; read-out: A. baumannii 19606 MIC. In kind it is cell-based, Acinetobacter baumannii.
The next data set concerns P. aeruginosa (PAO1). Nature of the data set: MIC assay (broth microdilution, CLSI). The class given is cell-based. Conditions: Pseudomonas aeruginosa, PAO1; read-out: PAO1 MIC.
The next data set has as its system K. pneumoniae 13883. Nature of the data set: MIC assay (broth microdilution, CLSI). In kind it is cell-based, Klebsiella pneumoniae. Conditions: Klebsiella pneumoniae, 13883; read-out: K. pneumoniae 13883 MIC.
The next data set has as its system E. coli UAEC-1. Nature of the data set: MIC assay (broth microdilution, CLSI). The class given is cell-based. The conditions noted are these: Escherichia coli, UAEC1; read-out: E. coli UAEC-1 MIC.
A further data set deals with MRSA-2. In words: MIC assay with Tiron or metal(II) cation co-treatment. Conditions: Staphylococcus aureus; MRSA-2, no additive (Table 9); read-out: MIC. In kind it is cell-based, Staphylococcus aureus.
The nature of data set [9]: Aqueous solubility under MIC assay conditions. In kind it is physicochemical. The conditions noted are these: MIC assay media, 37 °C, aqueous buffer; read-out: [aq. soluble].
The test system of data set [10] is methicillin-resistant S. aureus (MRSA) strains. Nature of the data set: MIC assay, values summarised over MRSA strains. In kind it is cell-based, Staphylococcus aureus.
Another data set relates to MRSA BAA-1707. In words: MIC assay (broth microdilution, CLSI). The conditions noted are these: Staphylococcus aureus, read-out: MIC, MRSA BAA-1707.
The test system of another data set is MRSA BAA-44. In words: MIC assay (broth microdilution, CLSI). Conditions: Staphylococcus aureus, read-out: MIC, MRSA BAA-44.
Data set [11] concerns S. aureus clinical isolate SA 129. Nature of the data set: MIC assay (broth microdilution, CLSI). The conditions noted are these: Staphylococcus aureus, read-out: MIC, SA 129.
Data set [12] deals with S. aureus clinical isolate SA 138. In words: MIC assay (broth microdilution, CLSI). The conditions noted are these: Staphylococcus aureus, read-out: MIC, SA 138.
The test system of data set [13] is S. aureus clinical isolate SA 156. Nature of the data set: MIC assay (broth microdilution, CLSI). Conditions: Staphylococcus aureus, read-out: MIC, SA 156.
Data set [14] has as its system MRSA-2 planktonic cells and biofilms. In words: Calgary Biofilm Device (CBD) assay, MBC/MBEC. In kind it is cell-based, Staphylococcus aureus.
The subject of data set [15] is MRSE (S. epidermidis ATCC 35984) planktonic cells and biofilms. In words: Calgary Biofilm Device (CBD) assay, MBC/MBEC. Conditions: for MBC: Staphylococcus epidermidis, read-out: MRSE 35984 MBC. The class given is cell-based, Staphylococcus epidermidis.
The subject of data set [16] is S. aureus clinical isolate SA 147. In words: MIC assay (broth microdilution, CLSI). Conditions: Staphylococcus aureus, read-out: MIC, SA 147.
In data set [17] the test system is MRSA BAA-1707 planktonic cells and biofilms. In words: Calgary Biofilm Device (CBD) assay, MBC/MBEC. Conditions: Table 8.
Setting [18] is: Table 7, a midpoint of 2-fold range, b lowest concentration tested.
Where [19] appears, read: ATCC12228, read-out: MIC, S. epidermidis 12228.
The mark [20] stands for this setting: ATCC12228, read-out: MIC, Staphylococcus epidermidis (ATCC 12228).
Setting [21] is: Table 2A, read-out: MIC, Staphylococcus epidermidis (ATCC 35984).
Where [22] appears, read: Table 7, read-out: MIC, MRSE 35984.
[23] abbreviates: Enterococcus faecium, Table 2A, read-out: MIC, Enterococcus faecium (ATCC 700221).
Setting [24] is: Table 7, b lowest concentration tested, read-out: MIC, VRE 700221.

Molecules are shown by their SMILES. In brackets after ≈: the same amount, converted by molar mass. Several values for one entry are separate records, joined by “and”; a condition that tells them apart may be missing. Equal entries are not always repeated. Where two headings read alike, the source gives them in different places.

As for `Oc1cccc2nc3ccccc3nc12` [1-hydroxyphenazine], the “activity against staphylococcal pathogens” value in data set [1] (earlier report) was “inactive”.
For the compound `Oc1c(Br)ccc2nc3ccccc3nc12` [Compound 1, 2-bromo-1-hydroxyphenazine], the “MIC against S. aureus and S. epidermidis” value in [1] (earlier report of the group) is 6.25 μM and 1.7 μg/mL.
Turning to `Oc1ccc(Br)c2nc3cc(Cl)c(Cl)cc3nc12` [Compound 11], the minimal inhibitory concentration (MIC) is 0.78 µM (≈ 0.268 µg/mL) in data set [2] (Table 2A); 0.78 µM (≈ 0.268 µg/mL) in [2] (setting [18]); 0.39 µM (≈ 0.134 µg/mL) in data set [3]; 3.13 µM (≈ 1.08 µg/mL) in [4] (setting [19]); 3.13 µM (≈ 1.08 µg/mL) in data set [4] (setting [20]); 1.56 µM (≈ 0.537 µg/mL) in [5] (setting [21]). Further, the MIC in data set [5] (setting [22]) was 1.56 µM (≈ 0.537 µg/mL); in data set [6] (setting [23]), 6.25 µM (≈ 2.15 µg/mL); in [6] (setting [24]), 6.25 µM (≈ 2.15 µg/mL); in data set [7] (Table 7, read-out: MIC, M. tuberculosis H37Ra), 3.13 µM; in [7] (read-out: MIC, M. tuberculosis) it was around 1 µg/mL; with A. baumannii 19606, above 100 µM. Besides, the MIC in the data set with P. aeruginosa (PAO1) is above 100 µM; in the data set with K. pneumoniae 13883, above 100 µM; with E. coli UAEC-1 it was above 100 µM; in the data set with MRSA-2, 0.78 µM; in the data set on MRSA BAA-1707, 0.3 µM (≈ 0.103 µg/mL); in the data set with MRSA BAA-44, 1.17 µM (≈ 0.402 µg/mL). Further, the MIC in data set [11] amounted to 0.78 µM (≈ 0.268 µg/mL); in data set [12], 0.78 µM (≈ 0.268 µg/mL); in data set [13] it was 1.17 µM (≈ 0.402 µg/mL). The compound further had an IC50 at 24 h in “in vitro” above 100 µM. Further, in the data set with human red blood cells (human, 1 h, pH 7.2), the “% Hemolysis (200 μM)” value was 2.7%. Moreover, the “% Hemolysis at 200 μM” value in the data set with human red blood cells (human, 1 h, pH 7.2) amounted to 2.7%. The MBC in data set [8] (Table 8, c lowest concentration tested) stood at 100 µM (≈ 34.4 µg/mL). Besides, in [9], the solubility at 16 h amounted to 200 µM (≈ 68.8 µg/mL). The “growth inhibition activity against at least one MRSA strain” value in [10] is given as “sub-micromolar”.
For `Oc1c(I)cc(I)c2nccnc12` [Compound 26], the MIC in data set [2] (setting [18]) amounted to 3.13 µM (≈ 1.25 µg/mL); in data set [3] it was 1.56 µM (≈ 0.621 µg/mL); in data set [4] (ATCC12228, Table 2A, read-out: MIC, Staphylococcus epidermidis (ATCC 12228)) it was 6.25 µM (≈ 2.49 µg/mL); in [4] (ATCC12228, Table 7, b lowest concentration tested, read-out: MIC, S. epidermidis 12228), 6.25 µM (≈ 2.49 µg/mL); in data set [5] (setting [21]), 3.13 µM (≈ 1.25 µg/mL); in data set [5] (setting [22]) it was 3.13 µM (≈ 1.25 µg/mL). Further, the MIC in [6] (setting [23]) stood at 12.5 µM (≈ 4.97 µg/mL); in data set [6] (setting [24]), 12.5 µM (≈ 4.97 µg/mL); in the data set on MRSA BAA-1707 it was 1.56 µM (≈ 0.621 µg/mL); in the data set with MRSA BAA-44 it was 1.56 µM (≈ 0.621 µg/mL); in data set [11] it was 6.25 µM (≈ 2.49 µg/mL); in data set [12] it was 6.25 µM (≈ 2.49 µg/mL). Also, the MIC in [16] was found to be 6.25 µM (≈ 2.49 µg/mL); in data set [13], 3.13 µM (≈ 1.25 µg/mL). The IC50 at 24 h in the data set “in vitro” is above 100 µM. Further, the “% Hemolysis (200 μM)” value in the data set with human red blood cells (human, 1 h, pH 7.2) is listed as at most 1%. In the data set on human red blood cells (human, 1 h, pH 7.2), the “% Hemolysis at 200 μM” value is given as at most 1%. The MBC in data set [14] (Staphylococcus aureus, MRSA, Table 4, read-out: MBC, MRSA-2) was above 2000 µM; in data set [14] (Staphylococcus aureus, MRSA, Table 8, a/b 2-/4-fold range in independent experiments, read-out: MRSA-2 MBC) it was above 2000 µM; in [15] (Table 8), 750 µM (≈ 298 µg/mL).
In the case of `CN[C@H](CC(C)C)C(=O)N[C@H]1C(=O)N[C@@H](CC(N)=O)C(=O)N[C@H]2C(=O)N[C@H]3C(=O)N[C@H](C(=O)N[C@H](C(=O)O)c4cc(O)cc(O)c4-c4cc3ccc4O)[C@H](O)c3ccc(c(Cl)c3)Oc3cc2cc(c3O[C@@H]2O[C@H](CO)[C@@H](O)[C@H](O)[C@H]2O[C@H]2C[C@](C)(N)[C@H](O)[C@H](C)O2)Oc2ccc(cc2Cl)[C@H]1O` [Vancomycin, vancomycin, reference compound], the MIC in [4] (setting [19]) is 1.17 µM (≈ 1.7 µg/mL); in [4] (setting [20]) it was 1.17 µM (≈ 1.7 µg/mL); in data set [6] (Enterococcus faecium, read-out: MIC, Enterococcus faecium (ATCC 700221)) it was above 100 µM; in data set [6] (Table 2B, b lowest concentration tested, read-out: MIC, Enterococcus faecium (ATCC 700221)), above 100 µM; in data set [6] (read-out: MIC, VRE 700221), above 100 µM; in data set [12], 1.17 µM (≈ 1.7 µg/mL). For the same compound, the MIC in data set [16] stood at 1.17 µM (≈ 1.7 µg/mL). Besides, the “% Hemolysis (200 μM)” value in the data set with human red blood cells (1 h, 37 °C) is at most 1%. The “% Hemolysis at 200 μM” value is below 1% in the data set with human red blood cells (red blood cells) and at most 1% with human red blood cells (Table 8, human red blood cells). Also, the MBC in data set [14] (Staphylococcus aureus, MRSA, read-out: MBC, MRSA-2) was 5.9 µM (≈ 8.55 µg/mL); in data set [14] (Staphylococcus aureus, MRSA, read-out: MRSA-2 MBC), 3 µM (≈ 4.35 µg/mL); in data set [14] (Table 8, a/b 2-/4-fold range in independent experiments, read-out: MRSA-2 MBC) it was 3.0 µM (≈ 4.35 µg/mL); in data set [15] it was 3 µM (≈ 4.35 µg/mL); in [8], above 200 µM. In [15] (Table 5), the “MRSE MBEC” value was > 2,000 μM. For the same compound, in data set [8] (Table 5, c lowest concentration tested), the “VRE MBEC” value worked out at 150 µM. Besides, the “MRSA BAA-1707 MBEC” value in data set [17] was above 2000 µM.
